Reference: PubChem BioAssay (NCI)
Several values for one entry are separate records, joined by “and”; a condition that tells them apart may be missing. Equal values may be shown once.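 Results reflect a 48-hour exposure of cells in 96-well plates to compound at five concentrations. GI50 marks 50% less growth. TGI: concentration producing complete growth inhibition.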

Legend:
Assay in all cases: growth of human tumour cells (NCI), 48 h
LOX IMVI melanoma = system: LOX IMVI melanoma
SK-MEL-28 melanoma = system: SK-MEL-28 melanoma
SF-268 CNS = system: SF-268 CNS
MDA-MB-231 breast = system: MDA-MB-231 breast
RPMI-8226 leukemia = system: RPMI-8226 leukemia
CCRF-CEM leukemia = system: CCRF-CEM leukemia
SR leukemia = system: SR leukemia
TK-10 renal = system: TK-10 renal
M14 melanoma = system: M14 melanoma
SF-539 CNS = system: SF-539 CNS

SMILES	GI50 (LOX IMVI melanoma)	TGI (LOX IMVI melanoma)	GI50 (SK-MEL-28 melanoma)	TGI (SK-MEL-28 melanoma)	GI50 (SF-268 CNS)	TGI (SF-268 CNS)	GI50 (MDA-MB-231 breast)	TGI (MDA-MB-231 breast)	GI50 (RPMI-8226 leukemia)	TGI (RPMI-8226 leukemia)	GI50 (CCRF-CEM leukemia)	TGI (CCRF-CEM leukemia)	GI50 (SR leukemia)	TGI (SR leukemia)	GI50 (TK-10 renal)	TGI (TK-10 renal)	GI50 (M14 melanoma)	TGI (M14 melanoma)	GI50 (SF-539 CNS)	TGI (SF-539 CNS)
CN1CCN(CCCNc2nc3ccc(Oc4ccc(NC(=O)Nc5cc(C(F)(F)F)ccc5F)cc4)cc3[nH]2)CC1	4.25 µM	7.91 µM	4.24 µM	7.73 µM	4.17 µM	8.04 µM	3.97 µM	7.65 µM	5.88 µM	14 µM	4.96 µM	10.8 µM	6.33 µM	> 16.8 µM	3.93 µM	9.07 µM	4.54 µM	8.61 µM	4.22 µM	8.52 µM
CCCCCCCCCCCCCCCC(=O)OCC(C[As](=O)(O)O)OC(=O)CCCCCCCCCCCCCCC (stereo not drawn)	–	> 100 µM	–	> 100 µM	–	> 100 µM	–	> 100 µM	–	> 100 µM	–	> 100 µM	–	> 100 µM	–	> 100 µM	–	> 100 µM	–	> 100 µM
N#Cc1cc(-c2cc3ccccc3o2)oc1N	2.87 µM	12.5 µM	6.54 µM	19.7 µM	4.73 µM	20.1 µM	1.89 µM	4.76 µM	1.46 µM	5.04 µM	3.72 µM	21.2 µM	0.764 µM	3.1 µM	6.61 µM	34.8 µM	6.11 µM	22 µM	3.89 µM	14.5 µM
CC1=CC(=O)C=CC1=O	17.9 µM and 14.4 µM	42.6 µM and 28 µM	16.9 µM and 17.9 µM	30.8 µM and 32.6 µM	16.5 µM	31.2 µM	16.2 µM	30.4 µM	5.11 µM and 3.32 µM	39.9 µM and 102 µM	2.73 µM	10.5 µM	1.63 µM and 9.34 µM	–	20.8 µM and 16.9 µM	36.4 µM and 30.7 µM	22.7 µM and 20.5 µM	67.1 µM and 48.5 µM	29.3 µM and 17 µM	31.4 µM
CCc1nc(N)nc(N)c1-c1ccc(NC)c([N+](=O)[O-])c1	–	> 100 µM	–	> 100 µM	–	> 100 µM	–	> 100 µM	–	> 43.3 µM	–	> 41.8 µM	–	> 29.4 µM	–	> 100 µM	–	> 100 µM	–	> 100 µM
C/C(=N\Nc1ccc(Cl)cn1)c1ccc2ccccc2n1	2.02 µM	> 100 µM	3.6 µM	> 100 µM	2.75 µM	> 100 µM	3.36 µM	> 100 µM	2.05 µM	> 100 µM	0.513 µM	> 100 µM	1.68 µM	36.1 µM	6.31 µM	> 100 µM	2.39 µM	13.7 µM	2.57 µM	27.6 µM
CN(C)CCNc1ccc(CO)c2oc3ccc(O)cc3c(=O)c12	–	27 µM	–	32 µM	–	42.2 µM	–	37.7 µM	–	51.1 µM	–	34.1 µM	–	4.36 µM	–	69 µM	–	29.5 µM	–	25.1 µM
COc1ccc(C2=C(Cl)c3cc(OC)c(OC)cc3C2Cl)cc1 (stereo not drawn)	–	27.5 µM	–	31.8 µM	–	36 µM	–	36.6 µM	–	> 66.3 µM	–	21 µM	–	> 100 µM	–	47.5 µM	–	37.1 µM	–	30.8 µM
OCC1OC(n2cnc3c2NC=NC[C@H]3O)C(Cl)C1O (stereo partly drawn)	–	> 100 µM	–	> 100 µM	–	> 100 µM	–	> 100 µM	–	> 100 µM	–	> 100 µM	–	> 100 µM	–	> 100 µM	–	> 100 µM	–	> 100 µM
Nc1nc(Nc2cccnc2)sc1C(=O)c1ccccc1F	2.26 µM	> 100 µM	4.13 µM	22.3 µM	3.24 µM	25.8 µM	3.47 µM	> 100 µM	3.06 µM	7.35 µM	2.19 µM	> 21.9 µM	0.709 µM	–	4.09 µM	49.9 µM	4.64 µM	20.2 µM	1.52 µM	3.88 µM
COc1ccc(-c2[nH]c3ccc(OC)cc3c2/C=C(\C#N)S(=O)(=O)c2ccccc2)cc1	1.15 µM	> 100 µM	0.765 µM	> 67.8 µM	1.56 µM	> 100 µM	1.32 µM	> 30.7 µM	1.28 µM	6.64 µM	0.894 µM	6.19 µM	0.305 µM	2.6 µM	4.56 µM	> 100 µM	0.494 µM	18.2 µM	0.495 µM	2.51 µM
NS(=O)(=O)c1ccc(-c2ccc3c(NC(=O)C4CC4)n[nH]c3c2)cc1	> 25 µM	> 25 µM	> 25 µM	> 25 µM	> 25 µM	> 25 µM	> 25 µM	> 25 µM	> 25 µM	> 25 µM	> 25 µM	> 25 µM	> 25 µM	> 25 µM	> 25 µM	> 25 µM	> 25 µM	> 25 µM	> 25 µM	> 25 µM
